In patent publication US9908845B2, “Aryl ethers and uses thereof” (Peloton Therapeutics, Inc., priority 2013, dated 2018):

How the values were obtained:
[1] = test system: HIF-2α and HIF-2α-regulated genes (PAI-1, CCND1, VEGFA, and GLUT1); experiment: mRNA levels in tumor of 786-O xenograft bearing mice; type: in vivo; settings: renal cell carcinoma 786-O xenograft bearing mice; 10, 30 and 100 mg/kg three times at 12 hour intervals
human VEGFA [2] = experiment: plasma human VEGF level of 786-O xenograft bearing mice; type: in vivo; settings: 10, 30 and 100 mg/kg three times at 12 hour intervals, prior to treatment vs 12 h post treatment
786-O xenograft = experiment: tumor size in 786-O xenograft bearing mice, single agent; type: in vivo; settings: 3, 10, 30 and 100 mg/kg BID for 20 days
[3] = test system: EPO and PGK1 mRNA in mouse kidney; experiment: In vivo PK/PD study: mouse kidney mRNA levels by qRT-PCR; design: species or system SCID/Biege mice; settings: oral gavage, three times at 12 hour intervals
Description: (§1) About 5×10^6 renal cell carcinoma 786-O tumor cells (ATCC® CRL-1932™, VHL and HIF-1α null cell line) in PBS and Matrigel (1:1 in volume) were injected subcutaneously at the right flanks of SCID/Biege mice at 6-7 weeks of age for xenograft development. When the xenografts reached about 450 mm^3 in size, the tumor bearing mice were randomly divided into 4 groups (n=4). Plasma was collected prior to treatment by retro-orbital bleeding. […] All animals were sacrificed at 12 hours post last dose. Tumor, kidney, and plasma were collected from each animal. Total RNA was extracted from the tumors and kidneys. The mRNA levels of HIF-1α, HIF-2α and their respective target genes were determined by qRT-PCR (FIG. 1).

human VEGFA [4] = experiment: In vivo PK/PD study: plasma level of human VEGFA by ELISA; design: species or system SCID/Biege mice; settings: 10, 30 or 100 mg/kg oral gavage, three times at 12 hour intervals
Description: as §1

[5] = test system: 786-O renal cell carcinoma cells; experiment: In vivo efficacy study, renal cell carcinoma 786-O xenograft model; design: species or system SCID/Biege mice
[6] = biological target: HIF-2α HIS TAG-PASB Domain; experiment: HIF-2α Scintillation Proximity Assay (SPA), probe displacement; type: binding
Description: The percent inhibition was determined and IC50 values were calculated using the Dotmatics system based on the following equation: % inhibition=[(high control−sample)/(high control−low control)]×100.

In the case of `N#Cc1cc(F)cc(Oc2ccc(S(=O)(=O)C(F)F)c3c2CC(F)(F)[C@H]3O)c1` [Compound 15, 3-[(1S)-7-(difluoromethylsulfonyl)-2,2-difluoro-1-hydroxy-indan-4-yl]oxy-5-fluoro-benzonitrile], the “mRNA levels of HIF-2α and HIF-2α-regulated genes (PAI-1, CCND1, VEGFA, and GLUT1) in tumor” value [1] is reported as “reduced”, the “plasma level of human VEGFA” value (human VEGFA [2]) is reported as “reduced” and the tumor size (786-O xenograft) is reported as “tumor size reduction and regression”. For the same compound, the “Level of EPO mRNA in mouse kidney” value [3] was “reduced”, the “mRNA level of PGK1 in mouse kidney” value [3] was “remained unchanged” and the “Human VEGFA in the plasma of 786-O tumor-bearing mice” value (human VEGFA [4]) was “significant reduction”. For the same compound, the “Reduction of tumor size vs vehicle (t-Test)” value ([5]; all treatment groups, 786-O xenograft model) was “statistically significant reduction”.
`O=S(=O)(c1ccc(Oc2ccc(F)c(Cl)c2)c2c1[C@H](O)C(F)(F)C2)C(F)F` [Compound 26, (S)-4-(3-Chloro-4-fluorophenoxy)-7-((difluoromethyl)sulfonyl)-2,2-difluoro-2,3-dihydro-1H-inden-1-ol] showed an IC50 [6] of less than 5 nM.
With `CCN(CC)CCNC(=O)c1c(C)[nH]c(/C=C2\C(=O)Nc3ccc(F)cc32)c1C` [Sutent, sutent, reference compound] the “Tumor size Mean ± SEM” value ([5]; 40 mg/kg QD, after 20 days of dosing) was 211.59 mm^3.
